Legend:
wild type HIV-1 = assay: microbe, parasite or virus in culture; format: cell-based, human immunodeficiency virus type 1 (HIV-1); settings: Human immunodeficiency virus 1, Hela-JC53
HIV-1 K103N-L100I mutant = assay: microbe, parasite or virus in culture; format: cell-based, human immunodeficiency virus type 1 (HIV-1); settings: Human immunodeficiency virus 1, HeLa, read-out: EC50 mutant K103N-L100I, mutant K103N-L100I

Compound	EC50 (wild type HIV-1) [nM]	EC50 (HIV-1 K103N-L100I mutant) [nM]
Cc1cc(-c2cc(F)cc(F)c2)cc(C)c1Oc1nc(Nc2ccc(C#N)cc2)nc2ccn(C)c12 [Example 65, 4-(4-(3′,5′-difluoro-3,5-dimethylbiphenyl-4-yloxy)-5-methyl-5H-pyrrolo[3,2-d]pyrimidin-2-ylamino) benzonitrile]	< 1	> 10
Cc1cc(-c2cc(F)c(F)c(F)c2)cc(C)c1Oc1nc(Nc2ccc(C#N)cc2)nc2ccn(C)c12 [Example 66]	< 1	1 to 10
COc1c(F)cc(F)cc1-c1cc(C)c(Oc2nc(Nc3ccc(C#N)cc3)nc3ccn(C)c23)c(C)c1 [Example 67, 4-(4-(3′,5′-difluoro-2′-methoxy-3,5-dimethylbiphenyl-4-yloxy)-5-methyl-5H-pyrrolo[3,2-d]pyrimidin-2-ylamino) benzonitrile]	< 1	> 10
Cc1cc(-c2ccc3c(c2)OCCO3)cc(C)c1Oc1nc(Nc2ccc(C#N)cc2)nc2ccn(C)c12 [Example 68, 4-(4-(4-(2,3-dihydrobenzo [b][1,4]dioxin-6-yl)-2,6-dimethylbipheoxy)-5-methyl-5H-pyrrolo[3,2-d]pyrimidin-2-ylamino) benzonitrile]	< 1	> 10
Cc1cc(-c2ccc3c(c2)OCO3)cc(C)c1Oc1nc(Nc2ccc(C#N)cc2)nc2ccn(C)c12 [Example 69, 4-(4-(4-(benzo[d][1,3]dioxol-5-yl)-2,6-dimethylbiphenoxy)-5-methyl-5H-pyrrolo[3,2-d]pyrimidin-2-ylamino) benzonitrile]	1 to 10	> 10
Cc1cc(-c2ccc(S(N)(=O)=O)cc2)cc(C)c1Oc1nc(Nc2ccc(C#N)cc2)nc2ccn(C)c12 [Example 72, 4′-(2-(4-cyanophenylamino)-5-methyl-5H-pyrrolo[3,2-d]pyrimidin-4-yloxy)-3′,5′-dimethylbiphenyl-4-sulfonamide]	1 to 10	< 1
Cc1cc(-c2ccccc2S(N)(=O)=O)cc(C)c1Oc1nc(Nc2ccc(C#N)cc2)nc2ccn(C)c12 [Example 73, 4′-(2-(4-cyanophenylamino)-5-methyl-5H-pyrrolo[3,2-d]pyrimidin-4-yloxy)-3′,5′-dimethylbiphenyl-2-sulfonamide]	> 10	> 10
Cc1cc(-c2ccccc2S(=O)(=O)NC(C)(C)C)cc(C)c1Oc1nc(Nc2ccc(C#N)cc2)nc2ccn(C)c12 [Example 74, N-tert-butyl-4′-(2-(4-cyanophenylamino)-5-methyl-5H-pyrrolo[3,2-d]pyrimidin-4-yloxy)-3′,5′-dimethylbiphenyl-2-sulfonamide]	> 10	> 10
Cc1cc(-c2ccc(C(=O)O)cc2)cc(C)c1Oc1nc(Nc2ccc(C#N)cc2)nc2ccn(C)c12 [Example 75, 4′-(2-(4-cyanophenylamino)-5-methyl-5H-pyrrolo[3,2-d]pyrimidin-4-yloxy)-3′,5′-dimethylbiphenyl-4-carboxylic acid]	< 1	1 to 10
Cc1cc(-c2cnn(Cc3ccccc3)c2)cc(C)c1Oc1nc(Nc2ccc(C#N)cc2)nc2ccn(C)c12 [Example 76, 4-(4-(4-(1-benzyl-1H-pyrazol-4-yl)-2,6-dimethylphenoxy)-5-methyl-5H-pyrrolo[3,2-d]pyrimidin-2-ylamino)benzonitrile]	1 to 10	> 10
Cc1cc(-c2cccc(C(N)=O)c2)cc(C)c1Oc1nc(Nc2ccc(C#N)cc2)nc2ccn(C)c12 [Example 77, 4′-(2-(4-cyanophenylamino)-5-methyl-5H-pyrrolo[3,2-d]pyrimidin-4-yloxy)-3′,5′-dimethylbiphenyl-3-carboxamide]	1 to 10	> 10
Cc1cc(-c2ccnc(N3CCOCC3)c2Cl)cc(C)c1Oc1nc(Nc2ccc(C#N)cc2)nc2ccn(C)c12 [Example 79, 4-(4-(4-(3-chloro-2-morpholinopyridin-4-yl)-2,6-dimethylphenoxy)-5-methyl-5H-pyrrolo[3,2-d]pyrimidin-2-ylamino)benzonitrile]	1 to 10	1 to 10
Cc1cc(-c2cccnc2Cl)cc(C)c1Oc1nc(Nc2ccc(C#N)cc2)nc2ccn(C)c12 [Example 80, 4-(4-(4-2-chloropyridin-3-yl)-2,6-dimethylphenoxy)-5-methyl-5H-pyrrolo[3,2-d] pyrimidin-2-ylamino benzonitrile]	1 to 10	1 to 10
COc1cccc(-c2cc(C)c(Oc3nc(Nc4ccc(C#N)cc4)nc4ccn(C)c34)c(C)c2)c1C#N [Example 81, 4′-(2-(4-cyanophenylamino)-5-methyl-5H-pyrrolo[3,2-d]pyrimidin-4-yloxy)-3-methoxy-3′,5′-dimethylbiphenyl-2-carbonitrile]	1 to 10	> 10
Cc1cc(-c2ccc(C#N)nc2)cc(C)c1Oc1nc(Nc2ccc(C#N)cc2)nc2ccn(C)c12 [Example 84, 5-(4-(2-(4-cyanophenylamino)-5-methyl-5H-pyrrolo[3,2-d]pyrimidin-4-yloxy)-3,5-dimethyl-phenyl)picolinonitrile]	1 to 10	1 to 10
Cc1cc(-c2ccc(S(=O)(=O)NC3CC3)cc2)cc(C)c1Oc1nc(Nc2ccc(C#N)cc2)nc2ccn(C)c12 [Example 85, 4′-(2-(4-cyanophenylamino)-5-methyl-5H-pyrrolo[3,2-d]pyrimidin-4-yloxy)-N-cyclopropyl-3′,5′-dimethylbiphenyl-4-sulfonamide]	1 to 10	> 10

Compound	EC50 (wild type HIV-1) [nM]	EC50 (HIV-1 K103N-L100I mutant) [nM]
Cc1cc(-c2cc3ccccc3[nH]2)cc(C)c1Oc1nc(Nc2ccc(C#N)cc2)nc2ccn(C)c12 [Example 86, 4-(4-(4-(1H-indol-2-yl)-2,6-dimethylphenoxy)-5-methyl-5H-pyrrolo[3,2-d]pyrimidin-2-ylamino)benzonitrile]	> 10	> 10
COc1cncc(-c2cc(C)c(Oc3nc(Nc4ccc(C#N)cc4)nc4ccn(C)c34)c(C)c2)c1 [Example 87, 4-(4-(4-(5-methoxypyridin-3-yl)-2,6-dimethylphenoxy)-5-methyl-5H-pyrrolo[3,2-d]pyrimidin-2-ylamino) benzonitrile]	1 to 10	> 10
Cc1cc(-c2ccc(C(N)=O)cc2)cc(C)c1Oc1nc(Nc2ccc(C#N)cc2)nc2c(Cl)cn(C)c12 [Example 88, 4′-(7-chloro-2-(4-cyanophenylamino)-5-methyl-5H-pyrrolo[3,2-d]pyrimidin-4-yloxy)-3′,5′-dimethylbiphenyl-4-carboxamide]	1 to 10	1 to 10
Cc1cc(-c2ccc(C(=O)N(C)C)cc2)cc(C)c1Oc1nc(Nc2ccc(C#N)cc2)nc2ccn(C)c12 [Example 89, 4′-(2-(4-cyanophenylamino)-5-methyl-5H-pyrrolo[3,2-d]pyrimidin-4-yloxy)-N,N,3′,5′-tetramethylbiphenyl-4-carboxamide]	1 to 10	> 10
Cc1cc(-c2ccc(C(=O)N3CCC3)cc2)cc(C)c1Oc1nc(Nc2ccc(C#N)cc2)nc2ccn(C)c12 [Example 90]	1 to 10	> 10
Cc1cc(-c2ccc(C(=O)N3CCC(C#N)C3)cc2)cc(C)c1Oc1nc(Nc2ccc(C#N)cc2)nc2ccn(C)c12 (centres unmarked) [Example 91, 1-(4′-(2-(4-cyanophenylamino)-5-methyl-5H-pyrrolo[3,2-d]pyrimidin-4-yloxy)-3′,5′-dimethylbiphenylcarbonyl) pyrrolidine-3-carbonitrile]	> 10	> 10
Cc1cc(-c2ccc(C(=O)NC3CC3)cc2)cc(C)c1Oc1nc(Nc2ccc(C#N)cc2)nc2ccn(C)c12 [Example 92, 4′-(2-(4-cyanophenylamino)-5-methyl-5H-pyrrolo[3,2-d]pyrimidin-4-yloxy)-N-cyclopropyl-3′,5′-dimethylbiphenyl-4-carboxamide]	> 10	> 10
Cc1cc(-c2ccc(C(=O)N3CCC(O)C3)cc2)cc(C)c1Oc1nc(Nc2ccc(C#N)cc2)nc2ccn(C)c12 (centres unmarked) [Example 94, 4-(4-(4′-(3-hydroxypyrrolidine-1-carbonyl)-3,5-dimethylbiphenyl-4-yloxy)-5-methyl-5H-pyrrolo[3,2-d]pyrimidin-2-ylamino) benzonitrile]	1 to 10	1 to 10
Cc1cc(-c2ccccc2)cc(C)c1Oc1nc(Nc2ccc(C#N)cc2)nc2ccn(C)c12 [Example 95, 4-(4-(3,5-Dimethylbiphenyl-4-yloxy)-5-methyl-5H-pyrrolo[3,2-d]pyrimidin-2-ylamino)benzonitrile]	> 10	> 10
Cc1cc(-c2ccncc2)ccc1Oc1nc(Nc2ccc(C#N)cc2)nc2nc[nH]c12 [Example 98, 4-(6-(2-Methyl-4-(pyridin-4-yl)phenoxy)-7H-purin-2-ylamino)benzonitrile]	< 1	> 10
COc1ccc(Cn2cnc3nc(Nc4ccc(C#N)cc4)nc(Oc4c(C)cc(-c5ccncc5)cc4Cl)c32)cc1 [Example 99, 4-(6-(2-chloro-6-methyl-4-(pyridin-4-yl)phenoxy)-7-(4-methoxybenzyl)-7H-purin-2-ylamino)benzonitrile]	1 to 10	> 10
Cc1cc(-c2ccncc2)cc(Cl)c1Oc1nc(Nc2ccc(C#N)cc2)nc2nc[nH]c12 [Example 100, 4-(6-(2-Chloro-6-methyl-4-(pyridin-4-yl)phenoxy)-7H-purin-2-ylamino)benzonitrile]	1 to 10	> 10
COc1ccc(Cn2cnc3nc(Nc4ccc(C#N)cc4)nc(Oc4ccc(-c5ccncc5)cc4Cl)c32)cc1 [Example 101, 4-(6-(2-Chloro-4-(pyridin-4-yl)phenoxy)-7-(4-methoxybenzyl)-7H-purin-2-ylamino)benzonitrile]	> 10	> 10
N#Cc1ccc(Nc2nc(Oc3ccc(-c4ccncc4)cc3Cl)c3[nH]cnc3n2)cc1 [Example 102, 4-(6-(2-Chloro-4-(pyridin-4-yl)phenoxy)-7H-purin-2-ylamino)benzonitrile]	< 1	> 10
COc1ccc(Cn2cnc3nc(Nc4ccc(C#N)cc4)nc(Oc4c(Cl)cc(-c5ccncc5)cc4Cl)c32)cc1 [Example 103, 4-(6-(2,6-Dichloro-4-(pyridin-4-yl)phenoxy)-7-(4-methoxybenzyl)-7H-purin-2-ylamino)benzonitrile]	1 to 10	> 10

Source: US8207178B2 (priority 2007, dated 2012)
